From patent publication US7732401B2, “Inhibitor of TGF-β activation reaction” (Riken, priority 2007, dated 2010)
Entries after “also recorded” stand apart in the source; their conditions may differ. One block for each substance: values may come before it. Where no end group is shown, it is not given here.

Assays:
[1] = system: hepatic stellate cells; assay: Transformation (activation) of cultured hepatic stellate cells on a plastic dish, observed under a microscope; type: cell-based, rat; conditions: for suppression of activation of hepatic stellate cells (morphological change with disappearance of vitamin A-containing oil droplets): Example 1, peptide 1 mM, FIG. 2; for suppression of activation of hepatic stellate cells (morphological change with disappearance of oil droplets containing vitamin A): Example 4, peptide 0.5 mM, FIG. 7
Procedure: (§1) According to the method previously reported (Okuno M. et al., Gastroenterology 2001; 120: 1784-1800), hepatic stellate cells were isolated from the liver of male Wistar rats (body weight: 350 to 400 g; Japan Clea), and the isolated cells were then seeded in a concentration of 1×10^6 cells/dish on a 3.5-cm culture plastic dish. Thereafter, the cells were cultured in 1 ml of Dulbecco's modified Eagle medium (DMEM; manufactured by SIGMA) containing 10% fetal calf serum (FCS; manufactured by GIBCO).
From day one of isolation of hepatic stellate cells, they were cultured for 7 days with the following peptides added in the medium; QP peptide (Gln-Ile-Leu-Ser-Lys-Leu-Arg-Leu-Ala-Ser-Pro) (SEQ ID NO: 9); QPA peptide (Gln-Ile-Leu-Ser-Ala-Ala-Ala-Leu-Ala-Ser-Pro) (SEQ ID NO: 10); and a control synthetic peptide consisting of 11 amino acids that is derived from a latent TGF-β1 LAP sequence (Thr-Gly-Val-Val-Arg-Gln-Trp-Leu-Ser-Arg-Gly; this is referred to as T200 peptide) (SEQ ID NO: 11) (please refer to FIG. 1), however anticipated not to influence TGF-β activation reaction because of the sequence being apart from the TGF-β activation control region (Gly51 to Arg110) discovered by the present inventors (International Publication WO2005/023870). […] Influence of each peptide on transformation of hepatic stellate cells (which is also referred to as activation of hepatic stellate cells) induced by culturing them on the plastic dish was observed under a microscope.
(§2) A 60 mM aqueous stock solution of each peptide was prepared, and the peptide was then dissolved in a medium to make a final concentration of 1 mM. Until the 3rd day of isolation, the aforementioned cells were treated in a DMEM medium containing 10% FCS. On the 4th day, the medium was exchanged with serum free DMEM containing 0.1% bovine serum albumin (BSA) and each peptide with a final concentration of 1 mM, and the culture was further continued for 2 to 4 days. Thereafter, the culture medium was collected as a conditioned medium, and the amount of active TGF-β1 present in the conditioned medium was measured using an ELISA kit manufactured by PROMEGA. At the same time, the state of the cells was observed under a microscope (DMIRB; manufactured by Leica) and was then photographed.
In accordance with the method described in Example 1, the influence of each of the QP peptide, QPA peptide, QPQ peptide and T200 peptide on transformation of the cultured hepatic stellate cells, which occurs by culturing cells on a plastic dish, was observed.
(§3) Each peptide was dissolved in a medium to a final concentration of 0.5 mM (approximately 500 μg/ml). At the 1st day of isolation, the aforementioned cells were treated in a DMEM medium containing 10% FCS. On the 2nd day, the medium was changed with serum free DMEM containing 0.1% BSA and each peptide at a final concentration of 0.5 mM, and the culture was further continued for 2 to 7 days. Thereafter, the culture medium was collected as a conditioned medium, and the amount of active TGF-β1 present in the conditioned medium was then quantitated using an ELISA kit manufactured by PROMEGA. At the same time, the state of the cells was observed under a microscope (DMIRB; manufactured by Leica) and photographed.

[2] = system: active TGF-β1; assay: Amount of active TGF-β1 in conditioned medium of hepatic stellate cells (ELISA); type: cell-based, rat; conditions: for amount of active TGF-β generated into the conditioned medium, of the control / TGF-β (active TGF-β generated into the conditioned medium): Example 1, peptide 1 mM; for TGF-β (active TGF-β generated into the conditioned medium): Table 1; for inhibition of generation of the active TGF-β in the conditioned medium observed in control cells: Example 4, peptide 0.5 mM
Procedure: as §1, §2, §3

[3] = molecular target: T1, plasma kallikrein (Homo sapiens, UniProt P03952); assay: Cleavage of recombinant human LAP by plasma kallikrein, Western blot semi-quantitative analysis; type: biochemical; conditions: Example 3, peptide 2.5 mg/ml, 37° C., 40 minutes, FIG. 6
T1 construct: purchased SIGMA
T1 sequence (P03952 20-638, species assumed): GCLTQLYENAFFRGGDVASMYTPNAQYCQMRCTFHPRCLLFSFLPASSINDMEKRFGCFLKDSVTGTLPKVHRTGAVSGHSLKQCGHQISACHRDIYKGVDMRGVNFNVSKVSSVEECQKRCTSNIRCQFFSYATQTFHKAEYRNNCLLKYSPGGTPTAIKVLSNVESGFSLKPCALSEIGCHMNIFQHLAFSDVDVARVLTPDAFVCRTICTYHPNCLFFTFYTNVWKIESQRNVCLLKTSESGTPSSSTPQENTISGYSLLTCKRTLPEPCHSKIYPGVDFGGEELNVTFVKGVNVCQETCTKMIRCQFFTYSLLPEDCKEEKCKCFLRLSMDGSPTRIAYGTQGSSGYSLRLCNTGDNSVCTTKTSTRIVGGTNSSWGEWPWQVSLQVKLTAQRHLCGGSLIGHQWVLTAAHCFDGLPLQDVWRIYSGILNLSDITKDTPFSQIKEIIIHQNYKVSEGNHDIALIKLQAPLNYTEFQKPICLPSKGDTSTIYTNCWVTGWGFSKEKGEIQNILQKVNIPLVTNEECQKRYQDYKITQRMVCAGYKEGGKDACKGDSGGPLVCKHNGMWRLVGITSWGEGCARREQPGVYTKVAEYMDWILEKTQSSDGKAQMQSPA
Procedure: When 2 μg of recombinant human LAP R & D) (final concentration: 66 μg/ml) was incubated with plasma kallikrein (SIGMA; final concentration of 20 μg/ml), QP peptide, QPA peptide, T200 peptide, and QPQ peptide (SEQ ID NO: 4) were added thereto at a final concentration of 2.5 mg/ml, followed by incubation at 37° C. for 40 minutes. Thereafter, electrophoresis (room temperature, 27 mA, 50 minutes) was carried out using 13.5% polyacrylamide gel, so as to separate LAP (molecular weight: 41 kDa), a LAP degradation product (molecular weight: 38 kDa), and BSA (final concentration: 0.3 mg/ml; molecular weight: […]) used as an additive. Each separated protein or decomposed product was transferred onto a PVDF membrane by using a semi-dry transferring apparatus. According to the method of Akita et al. (Gastroenterology 123; 352-364, 2002), the membrane was then incubated first with a mouse anti-LAP monoclonal antibody (R & D) at a final concentration of 5 μg/ml or a mouse anti-L59 cleavage section-recognizing monoclonal antibody (homemade; International Publication WO2005/023870) at a final concentration of 20 μg/ml, at room temperature for 60 minutes, and then with a horseradish peroxidase-conjugated goat anti-mouse second antibody (Jackson ImmunoResearch Laboratories) at a final concentration of 1 μg/ml at room temperature for 60 minutes. Bands were then developed using an ECL plus reagent (GE Healthcare), so as to carry out the semi-quantitative analysis of the influence of each peptide on the attenuation of LAP band and the generation of LAP degradation product (FIG. 6).

[4] = system: endotoxin (LPS)-preadministered partially-hepatectomized mice; assay: LPS-preadministered partially-hepatectomized mice model for impaired liver regeneration, PCNA staining; type: in vivo, mouse; conditions: Example 2, 200 μg/head i.v., 8 times; for improvement of impaired liver regeneration due to preadministration of LPS: PCNA staining, FIG. 3 and 4

inhibition of LAP cleavage reaction (attenuation of LAP band, generation of LAP degradation product) [3]: only a weak inhibitory effect
Substance: N-52QILSAAAAASP62-C (QILSAAALASP) [QPA peptide, mutant of QP peptide with Lys56, Leu57, Arg58 and Leu59 substituted with Ala]
suppression of activation of hepatic stellate cells (morphological change with disappearance of vitamin A-containing oil droplets) [1]: significantly suppressed | suppression of activation of hepatic stellate cells (morphological change with disappearance of oil droplets containing vitamin A) [1]: significantly suppressed | amount of active TGF-β generated into the conditioned medium, of the control [2]: 2% | TGF-β (active TGF-β generated into the conditioned medium) [2]: 4 ± 1 pg/mL | inhibition of generation of the active TGF-β in the conditioned medium observed in control cells [2]: 25% | percentage of PCNA positive cells ([4]; 48 hours after PH, FIG. 4): 47% | improvement of impaired liver regeneration due to preadministration of LPS [4]: significantly improved

inhibition of LAP cleavage reaction (attenuation of LAP band, generation of LAP degradation product) [3]: more strongly than the QP peptide
Substance: N-52QILSQQQQASP62-C [QPQ peptide, mutant of QP peptide with Lys56, Leu57, Arg58 and Leu59 substituted with Gln]
suppression of activation of hepatic stellate cells (morphological change with disappearance of oil droplets containing vitamin A) [1]: significantly suppressed; also recorded: strongest suppressing effect | inhibition of generation of the active TGF-β in the conditioned medium observed in control cells [2]: 90%

inhibition of LAP cleavage reaction (attenuation of LAP band, generation of LAP degradation product) [3]: significantly inhibited
Substance: QILSKLRLASP [QP peptide]
suppression of activation of hepatic stellate cells (morphological change with disappearance of vitamin A-containing oil droplets) [1]: weakly suppressing effect | suppression of activation of hepatic stellate cells (morphological change with disappearance of oil droplets containing vitamin A) [1]: significantly suppressed | inhibition of generation of the active TGF-β in the conditioned medium observed in control cells [2]: 55% | improvement of impaired liver regeneration due to preadministration of LPS [4]: significantly improved; also recorded: completely improved

inhibition of LAP cleavage reaction (attenuation of LAP band, generation of LAP degradation product) [3]: only a weak inhibitory effect
Substance: TGVVRQWLSRG [T200 peptide, reference compound]
suppression of activation of hepatic stellate cells (morphological change with disappearance of vitamin A-containing oil droplets) [1]: did not exhibit such a suppressing effect | suppression of activation of hepatic stellate cells (morphological change with disappearance of oil droplets containing vitamin A) [1]: did not exhibit such a suppressing effect | amount of active TGF-β generated into the conditioned medium, of the control [2]: 74% | TGF-β (active TGF-β generated into the conditioned medium) [2]: 160 ± 19 pg/mL | improvement of impaired liver regeneration due to preadministration of LPS [4]: did not exhibit such an improving effect | improvement of impaired liver regeneration due to preadministration of LPS ([4]; listed as P200 peptide): did not exhibited any such improving effects
